system: not listed separately; experiment: terminal elimination half-life for the compound was evaluated after oral administration of a dose of 1 mg/kg in a group of eight conscious dogs; type: ADME, organism-based, Canis lupus familiaris; design: dose 1 mg/kg, route oral; details: dog, in vivo

| half-life [h] | Structure (SMILES) |
| --- | --- |
| 9.9 | CCOC(=O)C[C@H](NC(=O)CN1C(=O)N[C@@](C)(c2ccc(C(=N)N)cc2)C1=O)c1ccccc1.O=C(O)/C=C\C(=O)O [CARAFIBAN MALEATE] |

molecular target: T1, Integrin alpha-IIb/beta-3 (Homo sapiens, UniProt P05106+P08514); experiment: Inhibition of 125 I-fibrinogen binding to glycoprotein IIb/IIIa receptor; type: protein-complex assay; details: not given
T1 sequence (P05106 27-788 limits assumed): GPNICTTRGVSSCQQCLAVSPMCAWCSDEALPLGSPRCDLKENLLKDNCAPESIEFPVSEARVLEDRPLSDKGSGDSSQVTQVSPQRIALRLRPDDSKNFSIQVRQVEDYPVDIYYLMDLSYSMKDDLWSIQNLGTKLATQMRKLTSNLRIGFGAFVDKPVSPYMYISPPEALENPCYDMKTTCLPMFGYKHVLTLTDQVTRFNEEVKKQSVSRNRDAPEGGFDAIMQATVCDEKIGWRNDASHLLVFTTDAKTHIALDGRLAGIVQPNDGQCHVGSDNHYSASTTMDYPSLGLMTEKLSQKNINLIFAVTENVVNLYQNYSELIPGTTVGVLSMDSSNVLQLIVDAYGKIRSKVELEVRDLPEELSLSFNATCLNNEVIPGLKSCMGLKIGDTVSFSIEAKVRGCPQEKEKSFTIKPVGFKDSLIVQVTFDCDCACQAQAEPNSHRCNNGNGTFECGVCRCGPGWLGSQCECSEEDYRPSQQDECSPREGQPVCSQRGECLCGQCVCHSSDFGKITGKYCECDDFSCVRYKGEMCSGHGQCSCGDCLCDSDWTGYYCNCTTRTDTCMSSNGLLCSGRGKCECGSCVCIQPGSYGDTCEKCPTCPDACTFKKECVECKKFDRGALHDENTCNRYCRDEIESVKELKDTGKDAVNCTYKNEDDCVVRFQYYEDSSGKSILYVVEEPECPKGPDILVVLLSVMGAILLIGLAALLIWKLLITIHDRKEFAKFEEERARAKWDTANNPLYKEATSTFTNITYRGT
T1 sequence (P08514 32-887 limits assumed): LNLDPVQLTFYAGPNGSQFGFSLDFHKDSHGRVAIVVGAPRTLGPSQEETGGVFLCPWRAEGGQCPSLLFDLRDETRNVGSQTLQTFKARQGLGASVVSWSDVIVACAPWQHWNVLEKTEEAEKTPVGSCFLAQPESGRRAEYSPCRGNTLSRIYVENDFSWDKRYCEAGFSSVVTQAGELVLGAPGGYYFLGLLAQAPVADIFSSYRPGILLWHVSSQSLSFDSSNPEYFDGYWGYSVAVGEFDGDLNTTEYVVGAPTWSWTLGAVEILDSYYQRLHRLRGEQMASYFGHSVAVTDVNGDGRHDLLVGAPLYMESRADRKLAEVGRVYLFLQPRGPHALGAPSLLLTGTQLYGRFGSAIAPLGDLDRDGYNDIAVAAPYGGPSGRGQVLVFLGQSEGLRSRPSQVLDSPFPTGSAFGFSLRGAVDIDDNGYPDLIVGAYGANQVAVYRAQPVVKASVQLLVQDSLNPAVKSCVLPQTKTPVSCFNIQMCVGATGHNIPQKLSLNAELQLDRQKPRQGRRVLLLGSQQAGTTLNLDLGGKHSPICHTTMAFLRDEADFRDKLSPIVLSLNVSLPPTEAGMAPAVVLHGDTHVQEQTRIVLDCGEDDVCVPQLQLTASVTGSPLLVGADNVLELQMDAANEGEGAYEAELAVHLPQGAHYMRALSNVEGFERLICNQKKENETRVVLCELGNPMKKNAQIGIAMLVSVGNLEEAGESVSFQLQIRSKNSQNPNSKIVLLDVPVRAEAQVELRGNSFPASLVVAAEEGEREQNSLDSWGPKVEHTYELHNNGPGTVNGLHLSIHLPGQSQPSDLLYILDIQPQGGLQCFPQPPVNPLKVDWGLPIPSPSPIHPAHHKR
T1 sequence (P08514 891-1039 limits assumed): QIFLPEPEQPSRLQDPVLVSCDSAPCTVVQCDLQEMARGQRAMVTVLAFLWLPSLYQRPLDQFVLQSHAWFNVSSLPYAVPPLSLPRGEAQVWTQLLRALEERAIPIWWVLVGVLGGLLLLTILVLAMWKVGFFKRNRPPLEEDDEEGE

| Ki [nM] | Structure (SMILES) |
| --- | --- |
| 30 | N=C(N)Nc1ccc(C2NC(=O)N(CC(=O)N[C@@H](CC(=O)O)C(=O)N[C@H](C(=O)O)c3ccccc3)C2=O)cc1 (stereo partly drawn) |

species: Homo sapiens; experiment: Inhibition of human platelet (isolated from PRP) aggregation; type: functional; details: not given

| IC50 [nM] | Structure (SMILES) |
| --- | --- |
| 40 | CC1(c2ccc(C(=N)N)cc2)NC(=O)N(CC(=O)N[C@@H](CC(=O)O)C(=O)N[C@H](C(=O)O)c2ccccc2)C1=O (stereo in doubt; 16) |
| 800 | CC1(c2ccc(C(=N)N)cc2)NC(=O)N(CC(=O)N[C@@H](CC(=O)O)C(=O)N[C@H](C(=O)O)c2ccccc2)C1=O (stereo in doubt; 17) |

same assay, conditions: Homo sapiens

| Structure (SMILES) | IC50 [nM] |
| --- | --- |
| CC(C)[C@H](NC(=O)[C@H](CC(=O)O)NC(=O)CN1C(=O)N[C@@H](CCCN=C(N)N)C1=O)C(=O)O | 1000 |
| CC(C)C[C@H](NC(=O)[C@H](CC(=O)O)NC(=O)CN1C(=O)N[C@@H](CCCN=C(N)N)C1=O)C(=O)O | 3000 |
| COC(=O)[C@@H](NC(=O)[C@H](CC(=O)O)NC(=O)CN1C(=O)NC(C)(c2ccc(C(=N)N)cc2)C1=O)c1ccccc1 (stereo partly drawn) | 70 |
| N=C(N)c1ccc(/C=C2/NC(=O)N(CC(=O)N[C@@H](CC(=O)O)C(=O)N[C@H](C(=O)O)c3ccccc3)C2=O)cc1 | 150 |
| CC1(c2ccc(C(=N)N)cc2)NC(=O)N(CC(=O)N[C@@H](CC(=O)O)C(=O)NC2C3CC4CC(C3)CC2C4)C1=O (stereo partly drawn) | 25 |
| CCN1C(=O)N(CC(=O)NC(CC(=O)O)c2ccccc2)C(=O)C1(C)c1ccc(C(=N)N)cc1 (stereo not drawn) | 500 |
| CC1(c2ccc(C(=N)N)cc2)NC(=O)N(CC(=O)NCC(NC(=O)OCc2ccccc2)C(=O)O)C1=O (stereo not drawn) | 300 |
| N=C(N)c1ccc(C2(C3CC3)NC(=O)N(CC(=O)N[C@@H](CC(=O)O)C(=O)N[C@H](C(=O)O)c3ccccc3)C2=O)cc1 (stereo partly drawn) | 20 |
| CC1(c2ccc(NC(=N)N)cc2)NC(=O)N(CC(=O)N[C@@H](CC(=O)O)C(=O)N[C@H](C(=O)O)c2ccccc2)C1=O (stereo partly drawn) | 150 |
| CC1(c2ccc(CN)cc2)NC(=O)N(CC(=O)N[C@@H](CC(=O)O)C(=O)N[C@H](C(=O)O)c2ccccc2)C1=O (stereo partly drawn) | 150 |
| CCC1(c2ccc(C(=N)N)cc2)NC(=O)N(CC(=O)N[C@@H](CC(=O)O)C(=O)N[C@H](C(=O)O)c2ccccc2)C1=O (stereo partly drawn) | 25 |
| N=C(N)c1ccc(C2(Cc3ccccc3)NC(=O)N(CC(=O)N[C@@H](CC(=O)O)C(=O)N[C@H](C(=O)O)c3ccccc3)C2=O)cc1 (stereo partly drawn) | 50 |

Next, values leading:

| IC50 [nM] | Structure (SMILES) |
| --- | --- |
| 200 | N=C(N)c1ccc(CC2NC(=O)N(CC(=O)N[C@@H](CC(=O)O)C(=O)N[C@H](C(=O)O)c3ccccc3)C2=O)cc1 (stereo partly drawn) |
| 1500 | N=C(N)NCCC[C@@H]1NC(=O)N(CC(=O)N[C@@H](CC(=O)O)C(=O)N[C@H](C(=O)O)C2CCCCC2)C1=O |
| 5500 | N=C(N)Nc1ccc(CC2NC(=O)N(CC(=O)N[C@@H](CC(=O)O)C(=O)N[C@H](C(=O)O)c3ccccc3)C2=O)cc1 (stereo partly drawn) |
| 200 | N=C(N)Nc1ccc(C2NC(=O)N(CC(=O)N[C@@H](CC(=O)O)C(=O)N[C@H](C(=O)O)c3ccccc3)C2=O)cc1 (stereo partly drawn) |
| 6000 | N=C(N)Nc1cccc(C2NC(=O)N(CC(=O)N[C@@H](CC(=O)O)C(=O)N[C@H](C(=O)O)c3ccccc3)C2=O)c1 (stereo partly drawn) |
| 10000 | N=C(N)NCCC[C@@H]1NC(=O)N(CC(=O)N[C@@H](CC(=O)O)C(=O)N[C@@H](Cc2ccccc2)C(=O)O)C1=O |

molecular target: T1, Integrin alpha-IIb/beta-3; experiment: Inhibition of 125 I-fibrinogen binding to ADP-activated gel filtered human platelets; details: not given

| Ki [nM] | Structure (SMILES) |
| --- | --- |
| 120 | N=C(N)NCCC[C@@H]1NC(=O)N(CC(=O)N[C@@H](CC(=O)O)C(=O)N[C@H](C(=O)O)c2ccccc2)C1=O |
